Measurements: patent US20170319552A1, “ATROPISOMERS OF TRIAZOLE DERIVATIVE” (ARDEA BIOSCIENCES, INC., priority 2016, published 2017)
Read-outs that look alike come from different tables or passages of the source.

Experiments:
[1] = Atropisomer interconversion, thermal challenge in organic solvent (acetonitrile); format: physicochemical
Procedure: (§1) The individual atropisomers of Compound (I), atropisomer 1 and atropisomer 2 (elution order from normal-phase chiral chromatography) were exposed to various conditions, including thermal challenge in both organic and aqueous media and exposure to simulated biological conditions, to ascertain whether they readily interconvert.
Samples of each separate atropisomers were held at 60° C. for four days and then analyzed by high performance liquid chromatography (AGMS02 Agilent 1100) on a normal phase amylose-based chiral column (ChiralPak IA-3, 3 μm, 100×4.6 mm, column 244), using isocratic elution and UV detection at 226 nm (see example 1).

[2] = Atropisomer interconversion, thermal challenge in aqueous solvent (dilute sodium bicarbonate); format: physicochemical
Procedure: as §1
Atropisomer 1 was dissolved in dilute aqueous sodium bicarbonate solution. Atropisomer 2 was dissolved in dilute aqueous sodium bicarbonate solution. […] Samples of the resulting solutions were exposed to room temperature (rt), 60° C., and 100° C. for four days. After four days, the samples were concentrated to dryness (SpeedVac evaporator—DNA120, property H001630), redissolved in acetonitrile and analyzed by high performance liquid chromatography (AGMS02 Agilent 1100) on a normal phase amylose-based chiral column (ChiralPak IA-3, 3 μm, 100×4.6 mm, column 244), using isocratic elution and UV detection at 226 nm (see example 1). […] Sample chromatograms at t0, 60° C., and 100° C. after four days, are depicted in FIG. 3A, FIG. 3B and FIG. 3C respectively.

[3] = In vitro metabolism, incubations with human liver microsomes; format: in vitro ADME
Procedure: (§2) Human liver microsomes (0.5 mg/mL; mixed gender, ultrapooled, BD Biosciences, catalog number 452117) were incubated at 37±1° C. in 0.2 mL (final volume) of incubation mixtures containing potassium phosphate buffer (100 mM, pH7.4), MgCl2 (3 mM), NADPH (1 mM), and the atropisomers (1, 10, or 50 μM) (all experiments performed in duplicate). Stock solutions of atropisomers were prepared with DMSO at 100 mM. The final concentration of DMSO in the incubation was at or less than 0.05%. Reactions were initiated by addition of NADPH solution and terminated at predetermined time point (30 min) by addition of stop reagent (300 μL chilled acetonitrile containing 0.1 μM of 7-hydroxycoumarin as an internal standard). After incubation, microsomal proteins were precipitated by centrifugation at 3300×g for 15 min at 4° C. Supernatant fractions were analyzed by LC-MS/MS.
(§3) HPLC mass spectrometer system: An API4000 triple quadrupole mass spectrometer equipped with electrospray ionization ion source was used for quantitation and operated in positive mode. The HPLC system consisted of a CTC Analytics PAL autosampler, an Agilent 1100 series degasser (G1379A), and an Agilent 1100 series binary pump (G1312A). […]
(§4) The formation of M3, M3c, M4 and M6 from each atropisomer in liver microsomal and recombinant CYP incubations was determined, based on the peak area ratio of analyte over internal standard (IS)

[4] = In vitro metabolism, human liver microsomes in the presence of mEH inhibitor valpromide; format: in vitro ADME
Procedure: as §2, with “atropisomer” for “and the atropisomers”, “50 μM) and valpromide (0, 50, or 100” for “50”, “duplicate).” for “duplicate). Stock solutions of atropisomers were prepared with DMSO at 100 mM. The final concentration of DMSO in the incubation was at or less than 0.05%.”
as §3, §4

[5] = target: recombinant human CYP2C9 (Homo sapiens, UniProt P11712); test: Metabolite formation with recombinant human CYP2C9; format: in vitro ADME
Procedure: as §4

[6] = In vivo human metabolism, plasma and urine pharmacokinetics after single oral dose of racemic Compound (I); conditions: human
Procedure: Plasma samples were collected prior to dosing (within 30 minutes before dosing) and at the following timepoints: 0.5, 1, 1.5, 2, 3, 4, 5, 6, 8, 10, 12, and 24 hours postdose. Urine was also collected. […] The supernatant was diluted with injection solvent and analyzed by HPLC with tandem mass spectrometry (LC/MS/MS). […] The calibration curves were linear over the concentration range between 5.00 ng/mL and 2000 ng/mL with a lower limit of quantification (LLOQ) of 5.00 ng/mL.
Using the above data, the following plasma pharmacokinetic parameters were calculated using validated Phoenix WinNonlin, version 6.3 (Pharsight Corporation, Mountain View, Calif.) and are shown (geometric mean 95% CI) in tables 11, 12, and 13 below.
• Cmax: Maximum observed concentration (μg/mL) • Tmax: Time of occurrence of maximum observed concentration (hr) • AUC0-24: Area under plasma concentration-vs-time curve, from time 0 to 24 hours postdose (μg·hr/mL) • C24: Concentration 24 hours post dose (μg/mL) • t1/2: Apparent terminal half-life (hr)

[7] = Urine PK Parameters (Geometric mean, CI 95%), single oral 400 mg racemic Compound (I)
[8] = plasma, geometric mean, single oral 400 mg racemic Compound (I)

Chain of recombinant human CYP2C9 (P11712 whole entry): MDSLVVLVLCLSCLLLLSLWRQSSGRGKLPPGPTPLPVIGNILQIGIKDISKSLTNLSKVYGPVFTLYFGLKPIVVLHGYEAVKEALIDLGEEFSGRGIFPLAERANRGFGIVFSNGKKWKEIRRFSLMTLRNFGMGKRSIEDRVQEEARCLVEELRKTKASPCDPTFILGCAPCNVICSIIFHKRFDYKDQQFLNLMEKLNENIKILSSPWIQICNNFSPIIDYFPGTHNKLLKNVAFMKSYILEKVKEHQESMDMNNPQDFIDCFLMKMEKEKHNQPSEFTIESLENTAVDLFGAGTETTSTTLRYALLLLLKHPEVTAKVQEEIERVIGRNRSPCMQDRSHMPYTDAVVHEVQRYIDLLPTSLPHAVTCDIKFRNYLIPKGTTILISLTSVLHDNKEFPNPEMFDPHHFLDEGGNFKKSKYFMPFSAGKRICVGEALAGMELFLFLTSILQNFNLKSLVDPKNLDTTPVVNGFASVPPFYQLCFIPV

O=C(O)CSc1nnc(Br)n1-c1ccc(C2CC2)c2ccccc12 (single isomer, unassigned) [Atropisomer 1, (−)-2-(5-bromo-4-(4-cyclopropylnaphthalen-1-yl)-4H-1,2,4-triazol-3-ylthio)acetic acid]
% Atropisomer 1 ([1]; acetonitrile 0.25 mg/mL, t0): 99.7%
% Atropisomer 2 ([1]; acetonitrile 0.25 mg/mL, t0): 0.3%
% Atropisomer 1 ([1]; acetonitrile, 60° C. 4 days): 99.7%
% Atropisomer 2 ([1]; acetonitrile, 60° C. 4 days): 0.3%
% Atropisomer 1 ([2]; 60° C. 4 days): 99.8%
% Atropisomer 2 ([2]; 60° C. 4 days): 0.2%
% Atropisomer 1 ([2]; 100° C. 4 days): 99.6%
% Atropisomer 2 ([2]; 100° C. 4 days): 0.4%
% Atropisomer 1 ([2]; rt, 4 days): 99.8%
% Atropisomer 2 ([2]; rt, 4 days): 0.2%
% Atropisomer 1 ([2]; t0 (control)): 99.8%
% Atropisomer 2 ([2]; t0 (control)): 0.2%
M3c formation [3]: predominantly formed
M3c level in the presence of valpromide (mEH inhibitor) [4]: greatly increased
Formation of M3c, CYP2C9 mediated, atropisomer 1 versus atropisomer 2 [5]: significantly greater
Ae0-24 [6, 7]: 66.3 mg
CLR0-24 [6, 7]: 42.6 mL/min
concentration at 0.5 h ([6]; male, plasma, po, 400 mg, 0.5 hr postdose, single oral 400 mg Compound (I) racemic mixture, adult male subjects): 65 ng/mL
concentration at 1 h ([6]; male, plasma, po, 400 mg, 1 hr postdose, single oral 400 mg Compound (I) racemic mixture, adult male subjects): 1720 ng/mL
concentration at 1.5 h ([6]; male, plasma, po, 400 mg, 1.5 hr postdose, single oral 400 mg Compound (I) racemic mixture, adult male subjects): 3600 ng/mL
concentration at 2 h ([6]; male, plasma, po, 400 mg, 2 hr postdose, single oral 400 mg Compound (I) racemic mixture, adult male subjects): 4460 ng/mL
concentration at 3 hr ([6]; male, plasma, po, 400 mg, 3 hr postdose, single oral 400 mg Compound (I) racemic mixture, adult male subjects): 5740 ng/mL
concentration at 4 hr ([6]; male, plasma, po, 400 mg, 4 hr postdose, single oral 400 mg Compound (I) racemic mixture, adult male subjects): 4560 ng/mL
concentration at 5 hr ([6]; male, plasma, po, 400 mg, 5 hr postdose, single oral 400 mg Compound (I) racemic mixture, adult male subjects): 3430 ng/mL
concentration at 6 hr ([6]; male, plasma, po, 400 mg, 6 hr postdose, single oral 400 mg Compound (I) racemic mixture, adult male subjects): 1960 ng/mL
concentration at 8 hr ([6]; male, plasma, po, 400 mg, 8 hr postdose, single oral 400 mg Compound (I) racemic mixture, adult male subjects): 811 ng/mL
concentration at 10 hr ([6]; male, plasma, po, 400 mg, 10 hr postdose, single oral 400 mg Compound (I) racemic mixture, adult male subjects): 415 ng/mL
concentration at 12 hr ([6]; male, plasma, po, 400 mg, 12 hr postdose, single oral 400 mg Compound (I) racemic mixture, adult male subjects): 248 ng/mL
concentration at 24 h ([6]; male, plasma, po, 400 mg, 24 hr postdose, single oral 400 mg Compound (I) racemic mixture, adult male subjects): 33 ng/mL
AUC(0-t) ([6]; male, plasma, po, 400 mg, Plasma Concentration (Mean), single oral 400 mg racemic Compound (I), read-out: AUC0-24): 27100 ng·h/mL
Cmax ([6]; male, plasma, po, 400 mg, Plasma Concentration (Mean), single oral 400 mg racemic Compound (I), read-out: Cmax): 6600 ng/mL
Cmax ([6]; male, plasma, po, 400 mg, plasma, geometric mean, single oral 400 mg racemic Compound (I), read-out: Cmax: Maximum observed concentration): 6230 ng/mL
half-life ([6]; male, plasma, po, 400 mg, plasma, geometric mean, single oral 400 mg racemic Compound (I), read-out: t1/2: Apparent terminal half-life (converted)): 3.59 h
concentration at 0 h ([6]; male, plasma, po, 400 mg, time 0 hr (prior to dosing), single oral 400 mg Compound (I) racemic mixture, adult male subjects): 0 ng/mL
Tmax ([6]; male, plasma, po, 400 mg, read-out: Tmax: Time of occurrence of maximum observed concentration): 3 h
AUC0-24: Area under plasma concentration-vs-time curve, from time 0 to 24 hours postdose [6, 8]: 25.9 µg·h/mL
C24 h: Concentration 24 hours post dose [6, 8]: 21.6 ng/mL
